The values below come from paper PMC8252455, “Prediction of a clinically effective dose of THY1773, a novel V 1B receptor antagonist, based on preclinical data” (Biopharmaceutics & Drug Disposition, 2021).

The nature of data set [1]: Plasma protein binding by equilibrium dialysis, human plasma. Particulars: PBPK input, experimental data. It counts as in vitro ADME. As for the experimental part: The plasma protein binding of THY1773 in rats, dogs, and humans was evaluated by an equilibrium dialysis method using a 96‐well equilibrium dialysis plate (HTDialysis) with a 12–14 kDa cut‐off dialysis membrane. THY1773 was dissolved in dimethyl sulfoxide, and spiked with rat, dog, or human plasma at a final concentration of 300 ng/ml. An aliquot of plasma containing THY1773 and sodium phosphate buffer (pH 7.4) was added into the donor side and the receiver side of each designated well, respectively. After incubation for 6 h at a rate of 50 oscillation/min at 37°C in an air incubator, an aliquot of each side of each well was collected and mixed with acetonitrile/methanol (9:1, vol/vol) containing the IS. Each sample was centrifuged at 3974 × g for 10 min at 4°C to remove the precipitated proteins, and the resultant supernatants were subjected to LC‐MS/MS analysis. The protein binding (%) was calculated using the Boudinot formula (Boudinot & Jusko, 1984).
(In equilibrium dialysis free small molecules cross a membrane that holds back macromolecules.)

A short description of data set [2]: PK and urinary excretion in dogs. It counts as in vivo, dog. As to the method: The PK and urinary excretion of THY1773 in rats (1 mg/kg) and dogs (0.5 mg/kg) under fasted conditions were evaluated following intravenous or oral administration of THY1773. THY1773 was dissolved in 10% (vol/vol) hydroxypropyl‐β‐cyclodextrin at pH 4 for intravenous administration, or suspended in 0.5% (wt/vol) methyl cellulose 400 for oral administration. After a single intravenous or oral administration of THY1773, blood samples were collected into tubes containing EDTA‐2K as an anticoagulant. The scheduled time points were predose (dog only), 5 (intravenous only), 15, 30 min, 1, 2, 4, 8, 12, and 24 h postdose. Plasma was separated by centrifugation. Urine samples were collected into bottles set on ice for 24 h after intravenous administration of THY1773. Plasma and urine samples were treated with 4 volumes of acetonitrile/methanol (9:1, vol/vol) containing the IS. After centrifugation (3639 × g, 4°C, 10 min) to remove precipitated proteins, the supernatant was subjected to LC‐MS/MS analysis. The distributions of THY1773 into brain and pituitary gland in rats were investigated after a single oral administration of THY1773 (1 mg/kg). Blood was collected from the tail vein into tubes containing EDTA‐2K at 1 h after a single oral administration of THY1773, and the plasma was separated by centrifugation (12000 × g, 4°C, 3 min). After blood collection, the brain and pituitary gland were excised followed by homogenization with approximately 4 volumes of distilled water. Plasma, brain, and pituitary samples were treated with 4 volumes of acetonitrile/methanol (9:1, vol/vol) containing the IS and centrifuged (3639 × g, 4°C, 10 min). Aliquots of the supernatant were subjected to LC‐MS/MS analysis.
The plasma concentration–time profiles of THY1773 were analyzed by a non‐compartmental analysis with PK analysis software Phoenix WinNonlin® (version 6.1; Certara), and the PK parameters were calculated. The fraction excreted in urine was calculated by dividing the amount of THY1773 excreted in urine by the administered dose.

The subject of another data set is plasma ACTH. Set-up: method as in Kamiya et al., 2020. As to conditions: rats, oral, doses with >50% V1B occupancy; ref Kamiya et al., 2020; cited from earlier work.
Another data set has as its target T1, pituitary V1B receptor (Homo sapiens, UniProt P47901).
T1 construct: from tissue; host or cells: pituitary gland of human subjects, in vivo PET
T1 sequence (P47901 1-424): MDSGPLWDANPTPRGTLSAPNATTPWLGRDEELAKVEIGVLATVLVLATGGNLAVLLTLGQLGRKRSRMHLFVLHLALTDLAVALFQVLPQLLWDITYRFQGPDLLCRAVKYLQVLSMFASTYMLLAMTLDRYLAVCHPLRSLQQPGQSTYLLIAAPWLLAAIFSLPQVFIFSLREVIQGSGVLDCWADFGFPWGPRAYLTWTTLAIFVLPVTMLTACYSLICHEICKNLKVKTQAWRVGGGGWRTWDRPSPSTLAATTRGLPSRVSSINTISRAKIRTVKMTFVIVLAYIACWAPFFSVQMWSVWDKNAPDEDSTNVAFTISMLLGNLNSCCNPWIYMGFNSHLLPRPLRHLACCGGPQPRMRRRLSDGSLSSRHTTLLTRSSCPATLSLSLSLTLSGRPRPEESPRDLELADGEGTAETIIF
The data set can be described thus: Phase 1 RO study using PET. It counts as in vivo. Particulars: unpublished data.

[3] abbreviates: male dogs, iv 0.5 mg/kg, mean (%CV), n=3.
[4] abbreviates: male dogs, po 0.5 mg/kg, mean (%CV), n=3.

Take `CC(C)NC(=O)Cn1c(-c2cccc(Cl)c2)nn(-c2ccc(CCN3CCOCC3)cc2)c1=O` [THY1773]: the “Fraction unbound in plasma” value in data set [1] is recorded as 0.017. Moreover, the “CLrenal compared with fu × GFR” value in data set [2] (dogs) was “comparable to fu × GFR”. Moreover, the “CLtotal as share of hepatic blood flow” value in data set [2] (dogs, single intravenous administration) is given as “approximately 30 % of hepatic blood flow”. In data set [2] (dogs, within 24 h post intravenous dosing), the “Urinary excretion of unchanged drug” value is 2.0%. Also, in data set [2] (setting [3]), the “AUC0‐∞” value is on record as 664 (23.7) h·ng/ml, the CLtotal is 785 (26.4) ml/h/kg, the Vdss is 2020 (37.6) ml/kg and the t1/2 is 3.07 (59.3) h. Also, in data set [2] (setting [4]), the “AUC0‐∞” value is reported as 307 (37.7) h·ng/ml, the Cmax is given as 105 (12.3) ng/ml, the “F (oral bioavailability)” value is 45.0 (16.6) % and the t1/2 is 2.40 (81.2) h. For the same compound, in data set [2] (setting [4]), the tmax was 0.500 (0.0) h. The “Effect on increase in plasma ACTH induced by CRF/desmopressin challenge” value with plasma ACTH is recorded as “significantly inhibited”. For the same compound, the “V1B RO at steady state (PET)” value on pituitary V1B receptor (10 mg) stood at 55.3%. Besides, the “V1B RO at steady state (PET)” value at pituitary V1B receptor (50 mg) is on record as 75.1%. The “In vivo EC50 for V1B RO compared with in vitro Ki for human V1B receptor” value on pituitary V1B receptor (human PET) is given as “comparable (within twofold)”.
